Measurements taken from patent publication US10016438B2, “Bicyclic heterocycles as FGFR4 inhibitors” (Incyte Corporation, priority 2015, dated 2018).

Assays:
FGFR2 = FGFR2 (Homo sapiens (Human), UniProt P21802); assay: FGFR Enzymatic Assay (FRET peptide phosphorylation), FGFR2; conditions: read-out: FGFR2 IC50; pre-incubated for 4 hours
Text: (§1) The enzymes were purchased from Millipore or Invitrogen.
(§2) GraphPad prism3 was used to analyze the data. The IC50 values were derived by fitting the data to the equation for a sigmoidal dose-response with a variable slope. Y=Bottom+(Top−Bottom)/(1+10^((Log IC50−X)*HillSlope)) where X is the logarithm of concentration and Y is the response.

FGFR3 = FGFR3 (Homo sapiens (Human), UniProt P22607); assay: FGFR Enzymatic Assay (FRET peptide phosphorylation), FGFR3; conditions: read-out: FGFR3 IC50; pre-incubated for 4 hours
Text: as §1, §2

FGFR1 = FGFR1 (Homo sapiens (Human), UniProt P11362); assay: FGFR Enzymatic Assay (FRET peptide phosphorylation), FGFR1; conditions: read-out: FGFR1 IC50; pre-incubated for 4 hours
Text: as §1, §2

FGFR4 = FGFR4 (Homo sapiens (Human), UniProt P22455); assay: FGFR Enzymatic Assay (FRET peptide phosphorylation), FGFR4; conditions: for FGFR1/FGFR4 / FGFR2/FGFR4 / FGFR3/FGFR4: IC50 ratio showing FGFR4 selectivity
Text: as §1, §2

[1] = pre-incubated for 5 to 10 minutes

FGFR4, sequence (P22455 22-802): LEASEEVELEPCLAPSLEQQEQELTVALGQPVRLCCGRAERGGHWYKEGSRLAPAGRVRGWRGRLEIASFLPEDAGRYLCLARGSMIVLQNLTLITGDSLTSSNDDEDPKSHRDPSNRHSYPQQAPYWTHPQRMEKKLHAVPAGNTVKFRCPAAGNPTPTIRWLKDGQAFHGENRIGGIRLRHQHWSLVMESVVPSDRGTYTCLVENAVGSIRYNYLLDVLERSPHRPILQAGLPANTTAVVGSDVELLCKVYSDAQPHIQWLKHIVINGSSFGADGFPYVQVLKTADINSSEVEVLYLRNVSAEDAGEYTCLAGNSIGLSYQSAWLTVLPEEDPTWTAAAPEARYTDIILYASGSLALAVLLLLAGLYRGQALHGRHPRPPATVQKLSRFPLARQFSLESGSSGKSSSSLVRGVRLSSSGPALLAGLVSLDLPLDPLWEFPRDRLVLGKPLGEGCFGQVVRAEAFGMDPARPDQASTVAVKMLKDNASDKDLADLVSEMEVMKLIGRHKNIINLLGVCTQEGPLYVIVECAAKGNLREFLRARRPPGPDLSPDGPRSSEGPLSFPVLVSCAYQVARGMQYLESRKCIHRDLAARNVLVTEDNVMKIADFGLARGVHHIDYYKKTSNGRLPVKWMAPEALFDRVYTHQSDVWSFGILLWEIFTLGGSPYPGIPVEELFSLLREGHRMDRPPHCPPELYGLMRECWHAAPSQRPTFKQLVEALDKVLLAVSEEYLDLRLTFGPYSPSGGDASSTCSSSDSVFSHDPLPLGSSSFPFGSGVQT
FGFR1, sequence (P11362 22-822): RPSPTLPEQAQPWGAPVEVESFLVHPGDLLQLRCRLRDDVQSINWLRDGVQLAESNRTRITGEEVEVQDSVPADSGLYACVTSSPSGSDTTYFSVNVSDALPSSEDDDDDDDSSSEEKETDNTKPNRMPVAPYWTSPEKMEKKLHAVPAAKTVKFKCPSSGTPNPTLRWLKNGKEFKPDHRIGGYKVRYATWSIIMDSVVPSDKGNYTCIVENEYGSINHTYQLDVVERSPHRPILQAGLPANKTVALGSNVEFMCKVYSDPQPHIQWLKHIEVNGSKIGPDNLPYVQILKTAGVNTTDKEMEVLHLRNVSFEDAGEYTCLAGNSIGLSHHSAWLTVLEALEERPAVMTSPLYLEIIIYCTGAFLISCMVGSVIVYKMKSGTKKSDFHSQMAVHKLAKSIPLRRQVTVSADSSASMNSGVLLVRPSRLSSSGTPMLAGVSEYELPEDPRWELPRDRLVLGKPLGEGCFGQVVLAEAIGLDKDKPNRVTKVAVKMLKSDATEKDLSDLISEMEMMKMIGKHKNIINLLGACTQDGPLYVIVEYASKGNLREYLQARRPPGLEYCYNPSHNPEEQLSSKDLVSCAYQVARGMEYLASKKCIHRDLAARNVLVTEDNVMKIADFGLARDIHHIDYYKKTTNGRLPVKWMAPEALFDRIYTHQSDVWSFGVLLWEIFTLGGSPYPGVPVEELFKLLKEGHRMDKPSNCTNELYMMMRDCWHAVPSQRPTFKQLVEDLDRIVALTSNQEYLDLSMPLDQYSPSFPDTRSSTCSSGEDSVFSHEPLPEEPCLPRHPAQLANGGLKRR
FGFR3, sequence (P22607 23-806): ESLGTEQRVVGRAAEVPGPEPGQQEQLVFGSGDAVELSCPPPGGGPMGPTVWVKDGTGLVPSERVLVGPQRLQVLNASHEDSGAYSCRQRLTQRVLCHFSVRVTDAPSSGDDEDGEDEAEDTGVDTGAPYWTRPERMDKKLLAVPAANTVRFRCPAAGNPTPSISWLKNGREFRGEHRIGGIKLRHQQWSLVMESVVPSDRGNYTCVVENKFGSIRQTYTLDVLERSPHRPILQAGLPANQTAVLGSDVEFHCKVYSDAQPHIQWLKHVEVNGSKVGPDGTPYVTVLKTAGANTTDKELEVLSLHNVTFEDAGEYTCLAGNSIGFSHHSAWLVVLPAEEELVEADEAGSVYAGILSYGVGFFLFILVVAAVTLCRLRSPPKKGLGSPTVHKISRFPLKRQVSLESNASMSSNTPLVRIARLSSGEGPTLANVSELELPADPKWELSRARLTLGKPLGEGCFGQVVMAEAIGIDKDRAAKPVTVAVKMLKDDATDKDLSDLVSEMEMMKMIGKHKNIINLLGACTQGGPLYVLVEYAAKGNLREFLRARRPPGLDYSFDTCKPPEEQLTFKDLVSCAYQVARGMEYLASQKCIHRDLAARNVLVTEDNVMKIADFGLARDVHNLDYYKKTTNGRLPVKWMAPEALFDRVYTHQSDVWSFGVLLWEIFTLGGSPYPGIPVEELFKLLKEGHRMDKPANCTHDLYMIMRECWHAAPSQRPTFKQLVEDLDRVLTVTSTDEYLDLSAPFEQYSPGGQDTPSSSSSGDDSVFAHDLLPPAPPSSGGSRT
FGFR2, sequence (P21802 22-821): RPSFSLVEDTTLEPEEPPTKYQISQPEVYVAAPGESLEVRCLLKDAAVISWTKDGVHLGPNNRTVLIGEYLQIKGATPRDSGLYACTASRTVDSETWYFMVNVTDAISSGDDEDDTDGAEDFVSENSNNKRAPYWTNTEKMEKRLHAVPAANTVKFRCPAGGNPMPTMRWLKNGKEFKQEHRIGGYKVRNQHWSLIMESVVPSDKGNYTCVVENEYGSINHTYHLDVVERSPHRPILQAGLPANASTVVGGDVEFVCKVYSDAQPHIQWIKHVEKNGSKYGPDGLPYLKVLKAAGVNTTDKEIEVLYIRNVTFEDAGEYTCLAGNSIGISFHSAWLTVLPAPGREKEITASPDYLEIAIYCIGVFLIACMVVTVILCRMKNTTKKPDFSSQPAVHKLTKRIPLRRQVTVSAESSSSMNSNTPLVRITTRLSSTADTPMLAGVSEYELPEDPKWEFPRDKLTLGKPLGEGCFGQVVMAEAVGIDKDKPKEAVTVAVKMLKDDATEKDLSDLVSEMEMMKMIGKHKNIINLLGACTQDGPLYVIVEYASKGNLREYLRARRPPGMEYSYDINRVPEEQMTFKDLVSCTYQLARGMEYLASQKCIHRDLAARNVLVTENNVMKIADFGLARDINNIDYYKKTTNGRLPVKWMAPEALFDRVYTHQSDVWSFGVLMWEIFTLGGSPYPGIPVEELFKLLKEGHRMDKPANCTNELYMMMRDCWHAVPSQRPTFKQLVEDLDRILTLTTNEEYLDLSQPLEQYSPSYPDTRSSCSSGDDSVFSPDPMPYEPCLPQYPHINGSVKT

IC50 (FGFR2) [nM] | IC50 (FGFR3) [nM] | IC50 (FGFR1) [nM] | FGFR1/FGFR4 (FGFR4; pre-incubated for 4 hours) | FGFR2/FGFR4 (FGFR4; pre-incubated for 4 hours) | FGFR3/FGFR4 (FGFR4; pre-incubated for 4 hours) | IC50 (FGFR4; read-out: FGFR4 IC50, pre-incubated for 4 hours) [nM] | FGFR1/FGFR4 (FGFR4; [1]) | FGFR2/FGFR4 (FGFR4; [1]) | FGFR3/FGFR4 (FGFR4; [1]) | Structure (SMILES)
> 200 | > 200 | > 200 | >100 | >100 | >100 | < 10 | – | – | – | C=CC(=O)Nc1cnn(C[C@@H]2CCCO2)c1-c1cc2c(cn1)CN(c1c(F)c(OC)cc(OC)c1F)C(=O)C21CC1 [Example 31, (S)-N-(5-(2′-(2,6-difluoro-3,5-dimethoxyphenyl)-3′-oxo-2′,3′-dihydro-1′H-spiro[cyclopropane-1,4′-[2,7]naphthyridine]-6′-yl)-1-((tetrahydrofuran-2-yl)methyl)-1H-pyrazol-4-yl)acrylamide]
> 200 | > 200 | > 200 | >50 | >100 | >100 | – | – | – | – | C=CC(=O)Nc1cnn(CC(=O)NC)c1-c1cc2c(cn1)CN(c1c(F)c(OC)cc(OC)c1F)C(=O)C21CC1 [Example 20, N-(5-(2′-(2,6-difluoro-3,5-dimethoxyphenyl)-3′-oxo-2′,3′-dihydro-1′H-spiro[cyclopropane-1,4′-[2,7]naphthyridine]-6′-yl)-1-(2-(methylamino)-2-oxoethyl)-1H-pyrazol-4-yl)acrylamide]
– | – | – | >100 | >100 | >100 | – | – | – | – | C=CC(=O)Nc1cn(CCN2CCOCC2)nc1-c1cc2c(cn1)CN(c1c(F)c(OC)cc(OC)c1F)C(=O)C21CC1 [Example 34, N-(3-(2′-(2,6-difluoro-3,5-dimethoxyphenyl)-3′-oxo-2′,3′-dihydro-1′H-spiro[cyclopropane-1,4′-[2,7]naphthyridine]-6′-yl)-1-(2-morpholinoethyl)-1H-pyrazol-4-yl)acrylamide]
– | – | – | >100 | >100 | >100 | – | >100 | >100 | >100 | C=CC(=O)Nc1cc(CN2CCOCC2)cc(-c2cc3c(cn2)CN(c2c(F)c(OC)cc(OC)c2F)C(=O)C32CC2)c1 [Example 11, N-[3-[2′-(2,6-difluoro-3,5-dimethoxyphenyl)-3′-oxo-2′,3′-dihydro-1′H-spiro[cyclopropane-1,4′-[2,7]naphthyridin]-6′-yl]-5-(morpholin-4-ylmethyl)phenyl]acrylamide]
